From ChEMBL document CHEMBL1201862, “PubChem BioAssay data set” (2004)
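Cells were grown in 96-well plates and exposed to each compound for 48 hours at five concentrations; endpoints were interpolated linearly between bracketing concentrations, or set to the highest concentration if not reached. The concentration for 50% growth inhibition is given as GI50.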 Active and inactive are the calls of the source. Rule as the data show it: active = GI50 up to about 1.1 µM and inactive = higher.

Legend:
Test in all cases: inhibition of tumour cell growth, NCI panel, 48 h
A549 = test system: A549
OVCAR-3 = test system: OVCAR-3
SK-MEL-5 = test system: SK-MEL-5
SR = test system: SR
HCT-15 = test system: HCT-15
U-251 = test system: U-251
SK-MEL-2 = test system: SK-MEL-2
SF-268 = test system: SF-268
EKVX = test system: EKVX
M14 = test system: M14
SK-MEL-28 = test system: SK-MEL-28
SNB-19 = test system: SNB-19
ACHN = test system: ACHN
SW-620 = test system: SW-620
OVCAR-8 = test system: OVCAR-8
KM12 = test system: KM12
SF-539 = test system: SF-539
TK-10 = test system: TK-10
OVCAR-5 = test system: OVCAR-5

| SMILES | GI50 (A549) | GI50 (OVCAR-3) | GI50 (SK-MEL-5) | GI50 (SR) | GI50 (HCT-15) [µM] | GI50 (U-251) | GI50 (SK-MEL-2) | GI50 (SF-268) | GI50 (EKVX) | GI50 (M14) | GI50 (SK-MEL-28) | GI50 (SNB-19) | GI50 (ACHN) | GI50 (SW-620) | GI50 (OVCAR-8) | GI50 (KM12) | GI50 (SF-539) | GI50 (TK-10) | GI50 (OVCAR-5) |
| --- | --- | --- | --- | --- | --- | --- | --- | --- | --- | --- | --- | --- | --- | --- | --- | --- | --- | --- | --- |
| Cc1ccc(S(=O)(=O)N/N=C/c2oc(-c3cccc([N+](=O)[O-])c3)c(-c3cccc([N+](=O)[O-])c3)c2[N+](=O)[O-])cc1 | > 100 µM (inactive) | > 100 µM (inactive) | 73.1 µM (inactive) | 17.6 µM (inactive) | 62.2 | 66.5 µM (inactive) | 28.3 µM (inactive) | 21.2 µM (inactive) | > 100 µM (inactive) | 51.2 µM (inactive) | 51.6 µM (inactive) | 67.1 µM (inactive) | 45.8 µM (inactive) | 37.8 µM (inactive) | 70.6 µM (inactive) | 36 µM (inactive) | > 100 µM (inactive) | > 100 µM (inactive) | > 100 µM (inactive) |
| CC[n+]1c(/C=C/c2ccc(N(CCCl)CCCl)cc2)ccc2cc(I)ccc21 | 3.04 µM (inactive) | 0.553 µM (active) | 0.552 µM (active) | 0.659 µM (active) | 6.52 | 0.67 µM (active) | 0.372 µM (active) | 1.78 µM (inactive) | 2.74 µM (inactive) | 1.21 µM (inactive) | 0.912 µM (active) | 0.843 µM (active) | 2.71 µM (inactive) | 0.916 µM (active) | 0.771 µM (active) | 1.08 µM (active) | 0.979 µM (active) | 2.05 µM (inactive) | 1.96 µM (inactive) |
| CCOC(OCC)C(CC)[Se]c1ccccc1[N+](=O)[O-] (configuration not stated) | 4.79 µM (inactive) | 2.45 µM (inactive) | 2.42 µM (inactive) | 0.593 µM (active) | 1.57 | 2.51 µM (inactive) | 6.34 µM (inactive) | 8.04 µM (inactive) | 5.7 µM (inactive) | 1.63 µM (inactive) | 10.5 µM (inactive) | 3.75 µM (inactive) | 11.3 µM (inactive) | 2.5 µM (inactive) | 4.48 µM (inactive) | 3.06 µM (inactive) | 2.02 µM (inactive) | 8.09 µM (inactive) | 6.35 µM (inactive) |
| CCSC1=C(C)N(/C=N/C(C)(C)C)CC1 | > 100 µM (inactive) | > 100 µM (inactive) | > 100 µM (inactive) | > 100 µM (inactive) | > 100 | > 100 µM (inactive) | > 100 µM (inactive) | > 100 µM (inactive) | > 100 µM (inactive) | > 100 µM (inactive) | > 100 µM (inactive) | > 100 µM (inactive) | > 100 µM (inactive) | 20.5 µM (inactive) | > 100 µM (inactive) | > 100 µM (inactive) | > 100 µM (inactive) | > 100 µM (inactive) | > 100 µM (inactive) |
| O=C(/C=C\c1cccc2ccccc12)c1cccc2ccccc12 | 13.1 µM (inactive) | 7.91 µM (inactive) | 12.7 µM (inactive) | 3.25 µM (inactive) | 4.03 | 6.34 µM (inactive) | 18.6 µM (inactive) |  | 14.3 µM (inactive) | 12.2 µM (inactive) | 8.17 µM (inactive) | 10.6 µM (inactive) | 11.6 µM (inactive) | 3.37 µM (inactive) | 5.82 µM (inactive) | 6.55 µM (inactive) | 14.3 µM (inactive) | > 10 µM (inactive) | > 10 µM (inactive) |
| CN(C)c1nc(Oc2nc(N(C)C)nc(N(C)C)n2)nc(N(C)C)n1 | 67 µM (inactive) | 46 µM (inactive) | > 100 µM (inactive) | > 100 µM (inactive) | > 100 | 75.2 µM (inactive) | > 100 µM (inactive) | > 100 µM (inactive) | > 100 µM (inactive) | > 100 µM (inactive) | > 100 µM (inactive) | > 100 µM (inactive) | > 100 µM (inactive) | > 100 µM (inactive) | 93.8 µM (inactive) | 62.5 µM (inactive) | > 100 µM (inactive) | > 100 µM (inactive) | > 100 µM (inactive) |
| O=C(/C=C/c1ccccc1)NC1C=Nc2ccc(Cl)cc2NC1=O (configuration not stated) | 28.2 µM (inactive) | 19.5 µM (inactive) | 16.5 µM (inactive) | 7.01 µM (inactive) | 22.1 | 18.6 µM (inactive) | 30.5 µM (inactive) | 36.2 µM (inactive) | 31.3 µM (inactive) | 21.9 µM (inactive) | 37.9 µM (inactive) | 29.1 µM (inactive) | 24.1 µM (inactive) | 7.13 µM (inactive) | 29.5 µM (inactive) | 22.2 µM (inactive) | 27.2 µM (inactive) | 36 µM (inactive) | 44.5 µM (inactive) |
| C[C@]12CC[C@H]3[C@@H](CC[C@]4(O)C[C@@H](O)CC[C@]34CO)[C@@]1(O)CC[C@@H]2C1=CC(=O)OC1 [STROPHANTHIDOL] | 0.453 µM (active) | 0.993 µM (active) | 0.979 µM (active) | 0.861 µM (active) | 2 | 2.7 µM (inactive) | 2.5 µM (inactive) | 0.982 µM (active) | 1.39 µM (inactive) | 3.01 µM (inactive) | 4.78 µM (inactive) | 5.94 µM (inactive) | 0.467 µM (active) | 2.37 µM (inactive) | 1.77 µM (inactive) | 3.66 µM (inactive) | 1.15 µM (inactive) | 1.52 µM (inactive) | 3.07 µM (inactive) |
| O=C(O)C12C3CCCC1C2CC3 (configuration not stated) | > 100 µM (inactive) | > 100 µM (inactive) | > 100 µM (inactive) | > 100 µM (inactive) | > 100 | > 100 µM (inactive) | > 100 µM (inactive) | > 100 µM (inactive) | > 100 µM (inactive) | > 100 µM (inactive) | > 100 µM (inactive) | > 100 µM (inactive) | > 100 µM (inactive) |  | > 100 µM (inactive) | > 100 µM (inactive) | > 100 µM (inactive) | > 100 µM (inactive) | > 100 µM (inactive) |
| CCCc1c(C(=O)OCC)[nH]c(-c2ccc(-c3[nH]c(C(=O)OCC)c(CCC)c3C(=O)OCC)s2)c1C(=O)OCC | 52.4 µM (inactive) | 31.6 µM (inactive) | 35.2 µM (inactive) | 7.26 µM (inactive) | 92.5 | 36.1 µM (inactive) | 15.7 µM (inactive) | 26.9 µM (inactive) | 62.4 µM (inactive) | 49.8 µM (inactive) | 95.5 µM (inactive) | 78.3 µM (inactive) | 34.8 µM (inactive) | > 100 µM (inactive) | 48 µM (inactive) | 22.1 µM (inactive) | 41 µM (inactive) | 50.1 µM (inactive) | 86.3 µM (inactive) |
| O=C1Oc2cc3c(c4cccc1c24)OCN(c1ccc(Cl)cc1)C3 | 10.2 µM (inactive) | 12 µM (inactive) | 1.37 µM (inactive) | 8.79 µM (inactive) | 2.97 | 41.9 µM (inactive) | 1.83 µM (inactive) | 23.9 µM (inactive) | > 58.2 µM (inactive) | 6.97 µM (inactive) | > 49.2 µM (inactive) | 47.8 µM (inactive) | 3.13 µM (inactive) | 7.4 µM (inactive) | 11.7 µM (inactive) | > 44.5 µM (inactive) | 4.46 µM (inactive) | > 100 µM (inactive) | > 35.8 µM (inactive) |
